Laboratory results reported in patent US7618988B2, “Use of substituted aminomethyl chromans” (Merck Patentgesellschaft, priority 2001, dated 2009).

Legend:
rat = assay: striatonigral degeneration model in the rat (turning behavior); assay type: in vivo; details: induced by apomorphine or amphetamine
From the text: Another more recent animal model is the striatonigral degeneration approach in the rat according to G. K. Wenning et al., J. Neural Transm. Suppl., 1999; 55: 103-113. Rats receive an unilateral injection of 6-hydroxydopamine into the left medial forebrain bundle followed by an injection of quinolinic acid into the ipsilateral striatum inducing nigrostriatal degeneration. The degeneration results in turning behavior to a challenge with dopaminomimetics such as apomorphine or amphetamine. Turning behavior is measured by an automated recorder.

rats [1] = assay: posthypoxic myoclonus in rats; details: rat, in vivo
Method: A typical animal model for myoclonus is myoclonus induced by an acute hypoxic episode according to D. D. Truong et al., Mov. Dsiord., 1994; 9: 201-206). In this model of posthypoxic myoclonus, rats undergo a cardiac arrest for 8 minutes and are resuscitated thereafter. Myoclonic jerks occur spontaneously but can be provoked by auditory stimulation, too, worsening over the days following cardiac arrest.

[2] = tested on: Parkinsonian cynomolgus monkey; assay: MPTP Parkinsonian cynomolgus monkey, parkinsonian symptoms (Laval University Disability Scale); assay type: in vivo
From the text: A typical animal model for idiopathic Parkinson's disease is the Parkinsonian cynomolgus monkey according to P. J. Blanchet et al., Exp. Neurology 1998; 153: 214-222. Monkeys render parkinsonian by repeated injections of 1-methyl-4-phenyl-1,2,3,6-tetrahydropyridine (MPTP). Parkinsonian symptoms are qualitatively assessed by the use of the Laval University Disability Scale (B. Gomez-Mancilla et al., 1993; Mov. Disord. 8: 144-150) measuring the following symptoms: posture, mobility, climbing, gait, holding food, vocalizing, grooming, social interaction.

[3] = tested on: Parkinsonian cynomolgus monkey; assay: MPTP Parkinsonian cynomolgus monkey, l-dopa-induced adverse effects; assay type: in vivo; details: MPTP monkeys chronically treated with l-dopa
Method: Treatment of adverse effects of conventional anti-Parkinsonian drugs as defined above are determined in a modification of the animal model of the Parkinsonian cynomolgus monkey according to P. J. Blanchet et al., Exp. Neurology 1998; 153: 214-222. Monkeys render parkinsonian by repeated injections of 1-methyl-4-phenyl-1,2,3,6-tetrahydropyridine (MPTP). The Parkinsonian monkeys are chronically treated with the standard 1-dopa therapy according to P. J. Blanchet et al., Mov. Disord., 1998; 13: 798-802. Longterm treatment with l-dopa induces extrapyramidal motor side effects and psychotic states which are both qualitatively and quantitatively, assessed by the Abnormal Involuntary Movement Scale (P. J. Blanchet et al., Mov. Disord. 1998; 13: 798-802) for different body parts (face, neck, trunk, each limb) and by rating for psychotic states by observing the monkey's attention, reactivity and mobility.

Weaver mutant mouse = Weaver mutant mouse (locomotor activity); details: in vivo
From the text: Typical genetic models in mutant animals are the Campus Syndrome in the Pietrain pig according to A. Richter et al. (Exp. Neurology, 1995; 134: 205-213) or the Weaver mutant mouse according to J. R. Simon and B. Ghetti (Mol. Neurobiol., 1994; 9: 183-189). In the Campus Syndrome model, these mutant pigs show a high-frequency tremor when standing and during locomotion, but not while lying at rest. Assessment of tremor is made by accelerometric recording. In the Weaver mutant mouse, degenerative cerebellar atrophy is […] in association with tremor, gait instability, and toppling over the sides after a few steps.

[4] = tested on: oxotremorine-induced tremor; assay: oxotremorine-induced tremor; assay type: in vivo; details: rating scale
Method: A typical animal model for drug-induced tremors is the oxotremorine-induced tremor (e.g. H. Hallberg and O. Almgren, Acta Physiol. Scand., 1987; 129: 407-13; J. G. Clement and W. R. Dyck, J. Pharmacol. Meth., 1989; 22: 25-36). Oxotremorine induces tremor which is measured by a rating scale.

5HT1A receptor = 5HT1A receptor (Homo sapiens, UniProt P08908); assay: GTP-gamma-S test (5HT1A agonism); assay type: biochemical; details: in vitro, 5HT1A agonistic properties; read-out: ED50 in GTP-gamma-S test
From the text: (§1) The affinity to the 5-HT1A receptor can be determined in vitro by radioligand binding experiments according to Cossery J M et al. (Eur. J. Pharmacol. 1987; 140: 143-155). The functional agonistic properties at the 5HT1A receptor can be determined in vitro in the GTP-gamma-S test (Newman-Tancredi A et al., Eur. J. Pharmacol.1996; 307: 107-111). A standard in vivo animal model to test for the 5HT1A agonistic properties is the ultrasonic vocalization test in rats (e.g. deFry J et al., Eur. J. Pharmacol. 1993; 249: 331-339; Sanchez C, Behav. Pharmacol. 1993; 4: 269-277). The affinity for dopamine D4 receptors can be determined in vitro by radioligand binding experiments according to Klokow M et al. (Drug Res. 1986; 36: 197-200).

rats [5] = assay: systemic 3-nitropropionic acid (3-NP) model in rats; assay type: in vivo, rat
Method: A typical animal model is the systemic 3-nitropropionic acid (3-NP) model in rats according to C. V. Borlongan et al., Brain Res., 1995; 697: 254-257. Rats are treated with injections of the selective striatal neurotoxin 3-NP i.p. every fourth day (C. V. Borlongan et al., Brain Res. Protocols, 1997; 1: 253-257). After two injections of 3-NP, rats display nocturnal hyperactivity reflecting symptoms of early Huntington's disease, whereas rats treated with four injections of 3-NP display nocturnal akinesia (hypoactivity) reflecting symptoms of late Huntington's disease. Nocturnal activity is automatically measured in conventional acitivity cages by infrared beams. (2R,4R)-2-({[5-(4-fluorophenyl)-pyridin-3ylmethyl]-amino}-methyl)-chroman-4-ol or a pharmaceutical acceptable salt or solvate thereof reduce both the nocturnal hyperactivity and akinesia.

rats [6] = assay: ultrasonic vocalization test in rats; details: Rattus norvegicus, in vivo
From the text: as §1

D2 receptors = D2 receptors (Homo sapiens, UniProt P14416); assay: binding / inhibitory effect at dopamine D2 receptor
D2 receptors, sequence (P14416 whole entry): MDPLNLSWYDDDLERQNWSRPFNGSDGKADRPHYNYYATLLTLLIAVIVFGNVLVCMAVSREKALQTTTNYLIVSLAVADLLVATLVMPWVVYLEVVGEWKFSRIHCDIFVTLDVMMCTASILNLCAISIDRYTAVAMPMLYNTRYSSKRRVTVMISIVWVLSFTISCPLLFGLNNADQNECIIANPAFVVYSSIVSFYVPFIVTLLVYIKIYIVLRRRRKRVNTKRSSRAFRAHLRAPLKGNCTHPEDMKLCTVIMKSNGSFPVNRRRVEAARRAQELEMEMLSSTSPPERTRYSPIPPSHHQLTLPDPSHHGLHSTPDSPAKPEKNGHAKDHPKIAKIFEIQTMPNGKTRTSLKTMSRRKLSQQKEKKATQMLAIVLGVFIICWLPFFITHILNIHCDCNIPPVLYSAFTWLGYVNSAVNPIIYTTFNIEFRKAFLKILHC

5HT1A receptor, sequence (P08908 whole entry): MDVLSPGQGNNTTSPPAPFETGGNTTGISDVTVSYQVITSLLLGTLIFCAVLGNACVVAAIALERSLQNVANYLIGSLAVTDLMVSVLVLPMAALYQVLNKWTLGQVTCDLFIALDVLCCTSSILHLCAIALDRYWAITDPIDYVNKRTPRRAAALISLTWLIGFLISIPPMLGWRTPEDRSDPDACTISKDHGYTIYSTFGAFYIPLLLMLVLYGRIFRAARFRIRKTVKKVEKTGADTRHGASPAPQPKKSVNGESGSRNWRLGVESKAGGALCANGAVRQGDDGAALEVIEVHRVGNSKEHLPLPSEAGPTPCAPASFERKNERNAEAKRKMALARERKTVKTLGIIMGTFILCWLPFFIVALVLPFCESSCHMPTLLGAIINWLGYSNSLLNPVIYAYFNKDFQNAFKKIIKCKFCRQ

Structure (SMILES): O[C@@H]1C[C@H](CNCc2cncc(-c3ccc(F)cc3)c2)Oc2ccccc21 [(2R,4R)-2-({[5-(4-fluorophenyl)-pyridin-3ylmethyl]-amino}-methyl)-chroman-4-ol]
- turning behavior (rat): dose-dependently antagonized
- number of spontaneous and auditory-evoked myoclonic jerks (rats [1]): dose-dependently reduce the number of spontaneous and autitory-evoked myoclonic jerks
- parkinsonian symptoms ([2]; Laval University Disability Scale): reduce all the parkinsonian symptoms
- total activity ([2]; cynomolgus monkey, in vivo): increased total activity
- choreiform and dystonic dyskinesias (Abnormal Involuntary Movement Scale) [3]: reduce overall choreiform dyskinesias and dystonic dyskinesias
- psychotic states [3]: reduce
- locomotor activity (Weaver mutant mouse): enhance locomotor activity
- oxotremorine-induced tremors [4]: inhibit oxotremorine-induced tremors
- EC50 (5HT1A receptor): 33 nM
- nocturnal akinesia (rats [5]; after four injections of 3-NP): reduce
- nocturnal hyperactivity (rats [5]; after two injections of 3-NP): reduce
- ED50 (rats [6]): 2 mg/kg
- binding to D2 receptors (D2 receptors): no or only a very weak binding
